Test results reported in patent US8889724B2, “Tetrazole compounds for reducing uric acid” (Wellstat Therapeutics Corporation, priority 2008, dated 2014).
Where “and” joins values, the source holds several entries; their conditions need not be identical. Equal values may be shown once.

How the values were obtained:
human URAT1 = human URAT1 (Homo sapiens (Human), UniProt Q96S37); assay: URAT1 inhibition assay: [8-14C] urate uptake in hURAT1-HEK cells; format: cell-based
Description: URAT1 (Uric Acid Transporter 1) is expressed on the apical membrane in renal tubules. It mediates the re-uptake of uric acid from the urine into the blood.
A suitable assay involves transfection of cells (e g human embryonic kidney cells; “HEK”) with a vector encoding human URAT1, followed by determination of the ability of transfected cells to take up radiolabeled uric acid. The activity of compounds as URAT1 inhibitors is evaluated by their ability to block uric acid uptake by transfected cells.
Test Compounds and Chemicals:
Urate (50-60 mCi/mmol; American Radio Chemicals, Cat. No. ARC0513).
Subcloning of hURAT1 into the Expression Vector:
Plasmid vector pCMV6-XL5 containing hURAT1 cDNA (Cat. No. SC125624) and the expression vector pCMV6-Neo (Cat. No. pCMVNEO) were obtained from OriGene Technologies, Inc. The full-length hURAT1 cDNA was obtained from the vector pCMV6-XL5 and subcloned into the expression vector pCMV6-Neo to create the hURAT1 expression plasmid pCMV6-hURAT1. The sequences were verified by automatic DNA sequencing.
Cell Culture, Transfection of URAT1 Expressing Plasmids and the Establishment of Stably Expressing HEK Cells for hURAT1:
For transfection experiments, cells were plated on 60 mm dishes in 1 ml media per dish. […] Stable transfectants expressing hURAT1 (herein after referred as hURAT1-HEK cells) or cells having only the expression vector pCMV6-Neo (herein after referred as mock-HEK cells) were verified using reverse transcription polymerase chain reaction (RT-PCR) methods.
[8-^14C] Urate Uptake Assay:
Before the uptake assay started, the culture medium was removed and the cells were incubated for 5 min in 0.6 ml of HBSS. After that HBSS was removed, the prepared reaction solutions were added into each well and incubated for 5 min at room temperature. Then the reaction solution was removed, cells were washed twice with 0.6 ml of cold HBSS and lysed with 0.2 ml of 0.1 M NaOH for 20 min. […] Test compounds were dissolved in DMSO and the same concentration of DMSO was added into the wells of mock-HEK cells and the hURAT1-HEK cells that didn't contain test compounds. For each test compound, the uptake assay was performed 2 times and carried out in triplicate. Urate uptake of the cells for each test condition was presented as the average percent inhibition in comparison to the DMSO control. The radioactivity values obtained for the wells that contained DMSO were taken as 100% uptake of the cells. The observed concentration-percent inhibition data were fitted to a sigmoidal concentration-effect model, where: % Inhibition=(100*Conc^Slope)/(IC50^Slope+Conc^Slope)
In this example the compounds were not necessarily tested simultaneously.

[1] = Rat pilot single-dose oral pharmacokinetic study with Compound EB; format: in vivo; conditions: 100 mg/kg single oral gavage; for Compound EB concentration in plasma, individual rats: male Sprague-Dawley rat
Description: Rat Pilot Single-Dose Oral Pharmacokinetic Study with Compound EB
Determination of the plasma profile of Compound EB following single oral gavage administration to male rats.
Test compound was suspended in 1% HPMC using a tissue homogenizer to minimize particles and maximize uniformity of the suspension and stored at 4° C. The formulations was thoroughly mixed just prior to administration. A dose of 100 mg/kg of test compounds or vehicle (1% HPMC) was administered to male Sprague-Dawley rats by single oral gavage. […] The blood samples were centrifuged within 30 minutes of collection under refrigeration (2-8° C.) for 7 minutes at 6000 rpm. Following centrifugation, the plasma were harvested into a single tube for each animal at each time point and immediately frozen at −80° C. until analyzed using LC/MS-MS. Serial plasma concentration time data was subjected to pharmacokinetic analyses using WinNonlin Standard (v2.1, Pharsight Corporation) and Microsoft EXCEL.
1. Rats received single oral gavage of Compound EB, 100 mg/kg, and plasma was collected at certain times.
2. Plasma was stored at −80° C. until the day of analysis.
3. Samples were thawed on 37° C. bath for 5 min and vortexed at top speed for 10 sec.
4. Rat plasma, 0.1 mL was mixed with 0.2 mL Acetonitrile, vortexed 1 min, spun down 14000 rpm, 17000 g, at 4° C., for 25 min.
(§1) 5. Supernatants were filtered through 0.45 micron, 4 mm, PTFE membrane syringe filter (Phenomenex # AF0-3102-52), and 13 microL were injected and resolved on Luna 3 micron, 100 A pore, C8(2), 150×3 mm, reverse phase column (Phenomenex#00F-4248-YO, SN#259151-7) in 50 min linear gradient from 40% to 69% of (0.1% Formic Acid, 89.9% Acetonitrile, 10% Methanol) at 0.25 mL/min, 100 bar, 37° C. column temperature, method 406975M1, AGILENT sequence 1015-08A, Agilent 1100 LC-MS.
All samples were run in duplicate, 210 nm and 230 nm Absorbances, Negative and Positive ionization spectrograms were recorded.
Step 1. Plasma from “Vehicle” animals (pooled), 0.19 mL, was mixed with 0.01 mL 20× stock of PN2107 in Methanol to make 500 microM, 250 microM, 125 microM, . . . , concentrations of Compound EB in plasma.
For example: 190 microL plasma+10 microL of 10 mM Compound EB in methanol=0.2 mL plasma with 500 microM Compound EB.
Step 2. Samples from step 1 were vortexed for 10 sec at top speed.
Step 3. 0.4 mL of acetonitrile was added to all samples from Step 2, and all vials were vortexed at top speed for 1 min.
Step 4. All samples from step 3 were spun down 14000 rpm, 17000 g, at 4° C., for 25 min.
as §1, with “Step 5.” for “5.”, “AF0-3102-52),” for “AF0-3102-52), and”, “ml/min,” for “mL/min,”, “temperature.” for “temperature, method 406975M1, AGILENT sequence 1015-08A, Agilent 1100 LC-MS.”

Sequence of human URAT1 (Q96S37 whole entry): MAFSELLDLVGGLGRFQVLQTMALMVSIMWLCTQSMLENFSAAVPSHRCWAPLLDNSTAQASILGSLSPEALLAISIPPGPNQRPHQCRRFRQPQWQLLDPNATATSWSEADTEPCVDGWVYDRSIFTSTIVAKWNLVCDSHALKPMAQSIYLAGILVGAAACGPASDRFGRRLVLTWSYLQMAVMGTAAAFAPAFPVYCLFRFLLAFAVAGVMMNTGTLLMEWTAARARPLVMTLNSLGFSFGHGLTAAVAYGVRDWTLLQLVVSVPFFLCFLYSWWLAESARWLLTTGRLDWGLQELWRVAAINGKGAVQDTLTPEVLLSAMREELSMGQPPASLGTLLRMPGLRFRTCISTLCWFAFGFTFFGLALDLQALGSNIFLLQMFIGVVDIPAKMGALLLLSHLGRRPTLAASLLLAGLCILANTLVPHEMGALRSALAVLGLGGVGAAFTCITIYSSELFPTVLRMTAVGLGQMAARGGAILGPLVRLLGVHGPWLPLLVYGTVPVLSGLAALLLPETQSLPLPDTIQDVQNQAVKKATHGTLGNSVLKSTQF

inhibition at 10 µM (human URAT1; 10 μM, hURAT1-HEK cells): 90%
IC50 (human URAT1; 14C urate uptake in hURAT1-HEK cells): 930 nM
Detection in rat plasma (in words) ([1]; LC-MS): readily detected
Cmax ([1]; Sprague-Dawley, rat, male rats, plasma): 108 µg/mL
AUC(0-t) ([1]; Sprague-Dawley, rat, male rats, plasma, read-out: AUC 0-24): 566 µg·h/mL
half-life ([1]; Sprague-Dawley, rat, male rats, plasma, read-out: T ½): 3.99 h
Compound EB concentration in plasma, individual rats ([1]; 1 HR): 386 µM and 103 µM
Compound EB concentration in plasma, individual rats ([1]; 2 HR): 75 µM and 206 µM
Compound EB concentration in plasma, individual rats ([1]; 4 HR): 24 µM and 112 µM
Compound EB concentration in plasma, individual rats ([1]; 6 HR): 26 µM and 92 µM
Compound EB concentration in plasma, individual rats ([1]; 8 HR): 72 µM and 202 µM
Compound EB concentration in plasma, individual rats ([1]; 24 HR): 0 µM and 17 µM
Compound EB concentration in plasma, individual rats ([1]; 15 min): 184 µM and 159 µM
Compound EB concentration in plasma, individual rats ([1]; 30 min): 37 µM and 125 µM
concentration at 0 h ([1]; male, Sprague-Dawley, rat plasma, time 0, read-out: Compound EB concentrations, averages): 0 nM and 0 ng/mL
concentration at 0.25 h ([1]; male, Sprague-Dawley, rat plasma, time 0.25, read-out: Compound EB concentrations, averages): 172 µM and 48000 ng/mL
concentration at 0.5 h ([1]; male, Sprague-Dawley, rat plasma, time 0.5, read-out: Compound EB concentrations, averages): 81 µM and 22700 ng/mL
concentration at 1 h ([1]; male, Sprague-Dawley, rat plasma, time 1, read-out: Compound EB concentrations, averages): 244 µM and 68500 ng/mL
concentration at 2 h ([1]; male, Sprague-Dawley, rat plasma, time 2, read-out: Compound EB concentrations, averages): 140 µM and 39300 ng/mL
concentration at 4 h ([1]; male, Sprague-Dawley, rat plasma, time 4, read-out: Compound EB concentrations, averages): 68 µM and 19000 ng/mL
concentration at 6 h ([1]; male, Sprague-Dawley, rat plasma, time 6, read-out: Compound EB concentrations, averages): 59 µM and 16500 ng/mL
concentration at 8 h ([1]; male, Sprague-Dawley, rat plasma, time 8, read-out: Compound EB concentrations, averages): 137 µM and 38400 ng/mL
concentration at 24 h ([1]; male, Sprague-Dawley, rat plasma, time 24, read-out: Compound EB concentrations, averages): 8.5 µM and 2380 ng/mL
SMILES: Cc1cccc(C)c1COc1cccc(-c2nnn[nH]2)c1 [Compound EB, 5-(3-(2,6-Dimethylbenzyloxy)phenyl)-1H-tetrazole]
